From US8791303B2, “Herbicides” (Syngenta Limited, priority 2009, dated 2014)

What was measured:
Type in all cases: in vivo
[1] = system: Echinochloa crus-galli (ECHCG); experiment: Example A glasshouse herbicide test, pre-emergence, ECHCG; settings: Echinochloa crus-galli, pre-emergence, 312 h, Rate 250 g/ha, sprayed after cultivation for one day, evaluated after 13 days, read-out: Pre-Emergence Activity ECHCG (100=total damage to plant; 0=no damage to plant)
Experimental: (§1) Seeds of a variety of test species are sown in standard soil in pots. After cultivation for one day (pre-emergence) or after 8 days cultivation (post-emergence) under controlled conditions in a glasshouse (at 24/16° C., day/night; 14 hours light; 65% humidity), the plants are sprayed with an aqueous spray solution derived from the formulation of the technical active ingredient in acetone/water (50:50) solution containing 0.5% Tween 20 (polyoxyethelyene sorbitan monolaurate, CAS RN 9005-64-5).
(§2) The test plants are then grown in a glasshouse under controlled conditions in a glasshouse (at 24/16° C., day/night; 14 hours light; 65% humidity) and watered twice daily. After 13 days for pre and post-emergence, the test is evaluated (100=total damage to plant; 0=no damage to plant).
(§3) Lolium perenne (LOLPE), Alopecurus myosuroides (ALOMY), Echinochloa crus-galli (ECHCG), Avena fatua (AVEFA)

[2] = system: Winter Wheat variety 'Hereward'; experiment: Example B crop damage test, post-emergence, wheat seed treated with safener cloquintocet mexyl; settings: Rate 250 g/ha; post-emergence spray 8 days after sowing; seed treated with cloquintocet mexyl 0.5 g/kg dry seed; evaluated after 13 days
Experimental: Seeds of the Winter Wheat variety ‘Hereward’ were seed treated with a wettable powder formulation of the cereal herbicide safener, cloquintocet mexyl, at a rate of 0.5 grams per kilogram of dry seed prior to the initiation of glasshouse testing. One seed was sown per 1.5 inch plastic pot into a sandy loam soil at a depth of 1 cm, 8 days prior to application of the test compounds and was watered and grown under controlled conditions in a glasshouse (at 24/16° C., day/night; 14 hours light; 65% humidity). The plants were sprayed post-emergence with an aqueous spray solution derived from the formulation of the technical active ingredient in acetone/water (50:50) solution containing 0.5% Tween 20 (polyoxyethelyene sorbitan monolaurate, CAS RN 9005-64-5).
(§4) The test plants were then grown in a glasshouse under controlled conditions in a glasshouse (at 24/16° C., day/night; 14 hours light; 65% humidity) and watered twice daily. After 13 days for pre and post-emergence, the test was evaluated (100=total damage to plant; 0=no damage to plant).

Lolium perenne (LOLPE) [3] = experiment: Example A glasshouse herbicide test, pre-emergence, LOLPE; settings: Lolium perenne, pre-emergence, 312 h, Rate 250 g/ha, sprayed after cultivation for one day, evaluated after 13 days, read-out: Pre-Emergence Activity LOLPE (100=total damage to plant; 0=no damage to plant)
Experimental: as §1, §2, §3

[4] = system: Alopecurus myosuroides (ALOMY); experiment: Example A glasshouse herbicide test, post-emergence, ALOMY; settings: Alopecurus myosuroides, post-emergence, 312 h, Rate 250 g/ha, sprayed after 8 days cultivation, evaluated after 13 days, read-out: Post-Emergence Activity ALOMY (100=total damage to plant; 0=no damage to plant)
Experimental: as §1, §2, §3

[5] = system: Alopecurus myosuroides (ALOMY); experiment: Example A glasshouse herbicide test, pre-emergence, ALOMY; settings: Alopecurus myosuroides, pre-emergence, 312 h, Rate 250 g/ha, sprayed after cultivation for one day, evaluated after 13 days, read-out: Pre-Emergence Activity ALOMY (100=total damage to plant; 0=no damage to plant)
Experimental: as §1, §2, §3

Lolium perenne (LOLPE) [6] = experiment: Example A glasshouse herbicide test, post-emergence, LOLPE; settings: Lolium perenne, post-emergence, 312 h, Rate 250 g/ha, sprayed after 8 days cultivation, evaluated after 13 days, read-out: Post-Emergence Activity LOLPE (100=total damage to plant; 0=no damage to plant)
Experimental: as §1, §2, §3

[7] = system: Echinochloa crus-galli (ECHCG); experiment: Example A glasshouse herbicide test, post-emergence, ECHCG; settings: Echinochloa crus-galli, post-emergence, 312 h, Rate 250 g/ha, sprayed after 8 days cultivation, evaluated after 13 days, read-out: Post-Emergence Activity ECHCG (100=total damage to plant; 0=no damage to plant)
Experimental: as §1, §2, §3

Avena fatua (AVEFA) [8] = experiment: Example A glasshouse herbicide test, post-emergence, AVEFA; settings: Avena fatua, post-emergence, 312 h, Rate 250 g/ha, sprayed after 8 days cultivation, evaluated after 13 days, read-out: Post-Emergence Activity AVEFA (100=total damage to plant; 0=no damage to plant)
Experimental: as §1, §2, §3

[9] = system: Winter Wheat variety 'Hereward'; experiment: Example B crop damage test, post-emergence, unsafened wheat; settings: Rate 250 g/ha; post-emergence spray after 8 days cultivation; no safener; evaluated after 13 days
Experimental: Seeds of the Winter Wheat variety ‘Hereward’ were sown in standard soil in pots. After 8 days cultivation under controlled conditions in a glasshouse (at 24/16° C., day/night; 14 hours light; 65% humidity), the plants were sprayed post-emergence with an aqueous spray solution derived from the formulation of the technical active ingredient in acetone/water (50:50) solution containing 0.5% Tween 20 (polyoxyethelyene sorbitan monolaurate, CAS RN 9005-64-5).
as §4

Avena fatua (AVEFA) [10] = experiment: Example A glasshouse herbicide test, pre-emergence, AVEFA; settings: Avena fatua, pre-emergence, 312 h, Rate 250 g/ha, sprayed after cultivation for one day, evaluated after 13 days, read-out: Pre-Emergence Activity AVEFA (100=total damage to plant; 0=no damage to plant)
Experimental: as §1, §2, §3

SMILES	pest or weed control at 250 g/ha [1] [%]	Winter Wheat (Hereward) + cloquintocet mexyl damage (100=total damage to plant; 0=no damage to plant) [2]	pest or weed control at 250 g/ha (Lolium perenne (LOLPE) [3]) [%]	pest or weed control at 250 g/ha [4] [%]	pest or weed control at 250 g/ha [5] [%]	pest or weed control at 250 g/ha (Lolium perenne (LOLPE) [6]) [%]	pest or weed control at 250 g/ha [7] [%]	pest or weed control at 250 g/ha (Avena fatua (AVEFA) [8]) [%]	Winter Wheat (Hereward) damage (100=total damage to plant; 0=no damage to plant) [9]	pest or weed control at 250 g/ha (Avena fatua (AVEFA) [10]) [%]
Cc1cc(C)c(C2C(=O)CC(CC3CCCCC3)C2=O)c(C)c1 (stereo not shown) [Compound A2]	90	10	100	70	70	100	90	80	70	70
Cc1cc(C)c(C2C(=O)CC(CC3CCCC3)C2=O)c(C)c1 (stereo not shown) [Compound A3]	100	20	100	90	100	90	90	80	60	70
Cc1cc(C)c(C2C(=O)C/C(=C\C3CCCC3)C2=O)c(C)c1 (stereo not shown) [Compound A4]	100	0	100	70	100	60	90	70	60	70
C=C(C)C1CCC(/C=C2\CC(=O)C(c3c(C)cc(C)cc3C)C2=O)CC1 (stereo not shown) [Compound A5]	80	0	40	30	30	30	30	20	10	0
Cc1cc(C)c(C2C(=O)CC(CC3CC(C)CCC3C)C2=O)c(C)c1 (stereo not shown) [Compound A6]	90	0	100	80	50	80	80	60	10	50
Cc1cc(Br)cc(C)c1C1C(=O)C/C(=C\C2CCCCC2)C1=O (stereo not shown) [Compound A7]	50	0	60	50	40	30	80	40	20	20
Cc1cc(C)c(C2C(=O)CC(CC3CCC(=NO)CC3)C2=O)c(C)c1 (stereo not shown) [Compound A8]	90	10	90	70	60	100	50	90	30	40
Cc1cccc(C)c1C1C(=O)CC(CC2CCCCC2)C1=O (stereo not shown) [Compound A10, 4-cyclohexylmethyl-2-(2,6-dimethyl-phenyl)-cyclopentane-1,3-dione]	20	0	80	20	0	40	70	20	10	0
Cc1cc(Br)cc(C)c1C1C(=O)CC(CC2CCCCC2)C1=O (stereo not shown) [Compound A11]	0	0	20	10	0	50	20	0	0	0
Cc1cc(C)c(C2C(=O)CC(CC3CCC3)C2=O)c(C)c1 (stereo not shown) [Compound A25]	100	0	100	60	100	100	90	80	30	60
Cc1cc(C)c(C2C(=O)C/C(=C\C3CCCCC3C)C2=O)c(C)c1 (stereo not shown) [Compound A26]	100	20	100	60	90	90	70	50	40	90
Cc1cc(C)c(C2C(=O)C/C(=C\C3CC3)C2=O)c(C)c1 (stereo not shown) [Compound A27, 4-[1-Cyclopropyl-methylidene]-2-(2,4,6-trimethyl-phenyl)-cyclopentane-1,3-dione]	100	0	100	60	90	100	100	70	40	70
Cc1cc(C)c(C2C(=O)CC(CC3CC3)C2=O)c(C)c1 (stereo not shown) [Compound A28, 4-Cyclopropylmethyl-2-(2,4,6-trimethyl-phenyl)-cyclopentane-1,3-dione]	100	10	100	70	90	100	90	50	30	70
